Assay results reported in the supplement of paper PMC8671470.

Assays:
Details in all cases: 72 h
[1] = test system: BV-173
Method in brief: (§1)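 Fifteen myeloid leukaemia cell lines were seeded in RPMI 1640 at densities titrated to the linear growth range and placed in 384-well plates with acoustically pre-printed compounds at five tenfold doses from 1 to 10,000 nM, in duplicate. After 72 h at 37 °C with 5% CO2, luminescent ATP viability was normalised to vehicle and to a positive control at 10 µM, and curves were fitted with a four-parameter log-logistic model. The IC50 was obtained from these fits.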

[2] = test system: HEL
Method in brief: as §1

[3] = test system: HL-60
Method in brief: as §1

[4] = test system: K-562
Method in brief: as §1

[5] = test system: KCL-22
Method in brief: as §1

[6] = test system: KG-1
Method in brief: as §1

[7] = test system: KU-812
Method in brief: as §1

[8] = test system: LAMA-84
Method in brief: as §1

[9] = test system: ML-2
Method in brief: as §1

[10] = test system: MOLM-13
Method in brief: as §1

[11] = test system: MV4-11
Method in brief: as §1

[12] = test system: Mono-Mac-6
Method in brief: as §1

[13] = test system: NOMO-1
Method in brief: as §1

[14] = test system: SHI-1
Method in brief: as §1

[15] = test system: THP-1
Method in brief: as §1

[16] = test system: BV-173; assay: cell viability (% survival relative to DMSO control, bortezomib = 0%); higher = less cytotoxic
Method in brief: (§2)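 Fifteen myeloid leukaemia cell lines were exposed to compounds at 1, 10, 100, 1000 or 10000 nM in 384-well plates for 72 h at 37 °C and 5% CO2. Viability was read by CellTiter-Glo luminescence and normalised, with vehicle as 100% and a 10 µM positive control as 0%. Values are percent survival averaged over duplicates.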

[17] = test system: HEL; assay: as above
Method in brief: as §2

[18] = test system: HL-60; assay: as above
Method in brief: as §2

[19] = test system: K-562; assay: as above
Method in brief: as §2

[20] = test system: KCL-22; assay: as above
Method in brief: as §2

[21] = test system: KG-1; assay: as above
Method in brief: as §2

[22] = test system: KU-812; assay: as above
Method in brief: as §2

[23] = test system: LAMA-84; assay: as above
Method in brief: as §2

[24] = test system: ML-2; assay: as above
Method in brief: as §2

[25] = test system: MOLM-13; assay: as above
Method in brief: as §2

[26] = test system: MV4-11; assay: as above
Method in brief: as §2

[27] = test system: Mono-Mac-6; assay: as above
Method in brief: as §2

[28] = test system: NOMO-1; assay: as above
Method in brief: as §2

[29] = test system: SHI-1; assay: as above
Method in brief: as §2

[30] = test system: THP-1; assay: as above
Method in brief: as §2

Oc1ncc(F)c(O)n1 [5-fluorouracil]
Details | IC50 (cell viability) [µM]
[1] | 3.48
[2] | 2.3
[3] | 1.07
[4] | > 10
[5] | 2.68
[6] | 4.31
[7] | > 10
[8] | 6.31
[9] | 2.3
[10] | 0.353
[11] | 0.435
[12] | 0.711
[13] | 9.6
[14] | 2.69
[15] | > 10

cell viability [%]
Details | 1 nM | 10 nM | 100 nM | 1000 nM | 10000 nM
[16] | 99 | 110 | 85.6 | 86.4 | 16.3
[17] | 95.1 | 104 | 84.2 | 73.8 | 31.8
[18] | 113 | 120 | 138 | 61.2 | 27.1
[19] | 101 | 114 | 91.5 | 108 | 68.9
[20] | 98.9 | 120 | 98.3 | 84.3 | 30.6
[21] | 101 | 114 | 85.8 | 83.5 | 46.2
[22] | 97.6 | 100 | 88.4 | 88 | 66.6
[23] | 91.1 | 98.5 | 99.8 | 86.9 | 48.8
[24] | 93 | 99.4 | 102 | 78.9 | 29.5
[25] | 128 | 109 | 82.2 | 22.4 | 2.01
[26] | 96 | 111 | 85 | 26.3 | 1.31
[27] | 95.4 | 95.5 | 88.4 | 47.9 | 19.3
[28] | 92.2 | 105 | 95.1 | 68.5 | 61.9
[29] | 91.6 | 110 | 102 | 70.9 | 44.6
[30] | 101 | 111 | 99.3 | 97.8 | 63.3

NCc1ccc(-c2cccnc2)s1 [(5-Pyrid-3-YLTHIEN-2-YL)METHYLAMINE]
Details | IC50 (cell viability) [µM]
[1] | > 10
[2] | > 10
[3] | > 10
[4] | > 10
[5] | > 10
[6] | > 10
[7] | > 10
[8] | > 10
[9] | > 10
[10] | > 10
[11] | > 10
[12] | > 10
[13] | > 10
[14] | > 10
[15] | > 10

cell viability [%]
Details | 1 nM | 10 nM | 100 nM | 1000 nM | 10000 nM
[16] | 113 | 102 | 98.7 | 104 | 87.2
[17] | 105 | 103 | 104 | 109 | 104
[18] | 99.3 | 107 | 103 | 115 | 121
[19] | 92.7 | 122 | 96.1 | 90.4 | 94
[20] | 122 | 114 | 91.6 | 84.7 | 88.8
[21] | 109 | 108 | 99.8 | 108 | 87.6
[22] | 104 | 107 | 97.7 | 104 | 85.1
[23] | 108 | 106 | 102 | 93 | 91.2
[24] | 104 | 108 | 97.6 | 113 | 96.5
[25] | 100 | 102 | 93.7 | 97.8 | 91.8
[26] | 91.6 | 123 | 104 | 110 | 89.6
[27] | 108 | 103 | 95.7 | 104 | 89
[28] | 109 | 105 | 97.5 | 109 | 87.9
[29] | 107 | 115 | 105 | 97 | 100
[30] | 109 | 111 | 99.6 | 104 | 93

CC(=O)N[C@@H](CS)C(=O)O [Acetylcysteine]
Details | IC50 (cell viability) [µM]
[1] | > 10
[2] | > 10
[3] | > 10
[4] | > 10
[5] | > 10
[6] | > 10
[7] | > 10
[8] | > 10
[9] | > 10
[10] | > 10
[11] | > 10
[12] | > 10
[13] | > 10
[14] | > 10
[15] | > 10

cell viability [%]
Details | 1 nM | 10 nM | 100 nM | 1000 nM | 10000 nM
[16] | 109 | 96.7 | 92.2 | 98.9 | 95.2
[17] | 110 | 90.4 | 90 | 113 | 104
[18] | 107 | 93.1 | 93.5 | 125 | 122
[19] | 106 | 97.9 | 77.2 | 96.2 | 103
[20] | 117 | 92.8 | 102 | 93.3 | 97.6
[21] | 113 | 98.3 | 101 | 88.9 | 101
[22] | 102 | 93.4 | 87.9 | 97.1 | 97
[23] | 96.2 | 96.8 | 88 | 101 | 101
[24] | 104 | 91.3 | 97.3 | 89.2 | 102
[25] | 107 | 107 | 81.8 | 110 | 105
[26] | 112 | 102 | 102 | 111 | 112
[27] | 114 | 96.3 | 97 | 100 | 105
[28] | 105 | 99 | 98.8 | 93.5 | 103
[29] | 100 | 96.5 | 105 | 97.2 | 110
[30] | 103 | 98.8 | 101 | 100 | 102
